In paper PMC8306566 (Marine Drugs, 2021):

Columns and labels:
Assay in all cases: cell-based
[1] = target: rα3β4 nAChR (Rattus norvegicus, UniProt P04757+P12392); type: cell-based
[2] = target: rα3β2 nAChR (Rattus norvegicus, UniProt P04757+P12390)
[3] = target: rα6/α3β2β3 nAChR (Rattus norvegicus, UniProt P04757+P12390+P12391+P43143)
[4] = target: rα2β4 nAChR (Rattus norvegicus, UniProt P12389+P12392)
[5] = target: rα2β2 nAChR (Rattus norvegicus, UniProt P12389+P12390)
[6] = target: rα6/α3β4 nAChR (Rattus norvegicus, UniProt P04757+P12392+P43143)
rα6/α3β4 nAChR, sequence (P04757 whole entry, looked up): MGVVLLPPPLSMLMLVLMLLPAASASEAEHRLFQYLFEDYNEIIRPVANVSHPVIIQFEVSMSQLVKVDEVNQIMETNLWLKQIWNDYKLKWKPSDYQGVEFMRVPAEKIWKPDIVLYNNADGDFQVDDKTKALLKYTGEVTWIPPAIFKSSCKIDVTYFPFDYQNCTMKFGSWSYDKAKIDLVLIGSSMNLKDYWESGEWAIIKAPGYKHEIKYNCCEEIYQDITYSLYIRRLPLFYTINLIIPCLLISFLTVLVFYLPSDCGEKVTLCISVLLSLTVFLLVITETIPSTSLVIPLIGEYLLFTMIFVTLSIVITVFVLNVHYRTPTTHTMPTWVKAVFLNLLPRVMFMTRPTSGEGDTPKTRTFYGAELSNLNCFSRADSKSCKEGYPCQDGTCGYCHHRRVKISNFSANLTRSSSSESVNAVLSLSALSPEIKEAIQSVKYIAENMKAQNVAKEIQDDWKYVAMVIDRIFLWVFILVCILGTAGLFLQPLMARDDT
rα6/α3β4 nAChR, sequence (P12392 whole entry, looked up): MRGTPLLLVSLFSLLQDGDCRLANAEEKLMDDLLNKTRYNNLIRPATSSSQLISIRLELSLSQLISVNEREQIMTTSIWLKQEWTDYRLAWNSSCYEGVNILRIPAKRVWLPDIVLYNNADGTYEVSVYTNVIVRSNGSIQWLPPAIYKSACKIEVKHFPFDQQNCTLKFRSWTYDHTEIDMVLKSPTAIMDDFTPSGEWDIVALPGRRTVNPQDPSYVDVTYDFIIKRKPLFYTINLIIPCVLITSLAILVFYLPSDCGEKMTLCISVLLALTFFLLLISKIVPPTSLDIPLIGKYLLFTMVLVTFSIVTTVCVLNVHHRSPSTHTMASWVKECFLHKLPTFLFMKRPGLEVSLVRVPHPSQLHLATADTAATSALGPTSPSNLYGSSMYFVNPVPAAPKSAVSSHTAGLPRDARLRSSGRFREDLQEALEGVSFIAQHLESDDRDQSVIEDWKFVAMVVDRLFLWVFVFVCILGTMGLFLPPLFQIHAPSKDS
rα6/α3β4 nAChR, sequence (P43143 whole entry, looked up): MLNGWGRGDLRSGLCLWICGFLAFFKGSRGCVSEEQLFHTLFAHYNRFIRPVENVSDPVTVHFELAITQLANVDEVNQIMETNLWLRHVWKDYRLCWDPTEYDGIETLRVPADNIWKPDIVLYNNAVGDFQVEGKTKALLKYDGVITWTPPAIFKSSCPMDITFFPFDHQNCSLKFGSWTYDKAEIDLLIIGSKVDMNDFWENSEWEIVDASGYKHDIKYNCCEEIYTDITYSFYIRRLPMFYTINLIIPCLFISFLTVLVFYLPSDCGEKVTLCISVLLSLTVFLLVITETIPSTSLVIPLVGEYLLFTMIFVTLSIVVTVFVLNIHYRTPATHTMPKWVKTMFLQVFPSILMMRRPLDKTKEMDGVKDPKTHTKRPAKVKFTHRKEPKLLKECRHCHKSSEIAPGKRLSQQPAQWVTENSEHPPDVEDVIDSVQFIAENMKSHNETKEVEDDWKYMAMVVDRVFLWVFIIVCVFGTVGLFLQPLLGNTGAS

[7] = target: rα9α10 nAChR (Rattus norvegicus, UniProt P43144+Q9JLB5)
rα9α10 nAChR, sequence (P43144 26-479 limits assumed): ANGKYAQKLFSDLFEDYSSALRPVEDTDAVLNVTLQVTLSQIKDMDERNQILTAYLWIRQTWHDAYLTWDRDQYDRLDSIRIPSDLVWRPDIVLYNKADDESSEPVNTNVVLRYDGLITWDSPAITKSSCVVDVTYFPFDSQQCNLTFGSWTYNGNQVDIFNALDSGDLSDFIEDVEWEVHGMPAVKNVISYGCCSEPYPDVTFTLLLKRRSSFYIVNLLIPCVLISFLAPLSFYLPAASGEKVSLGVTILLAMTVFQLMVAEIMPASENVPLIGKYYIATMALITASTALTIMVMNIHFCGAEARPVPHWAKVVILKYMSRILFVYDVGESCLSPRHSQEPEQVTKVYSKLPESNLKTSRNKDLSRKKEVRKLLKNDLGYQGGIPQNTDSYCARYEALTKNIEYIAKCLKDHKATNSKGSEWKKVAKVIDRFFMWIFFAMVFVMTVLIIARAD
rα9α10 nAChR, sequence (Q9JLB5 25-447 limits assumed): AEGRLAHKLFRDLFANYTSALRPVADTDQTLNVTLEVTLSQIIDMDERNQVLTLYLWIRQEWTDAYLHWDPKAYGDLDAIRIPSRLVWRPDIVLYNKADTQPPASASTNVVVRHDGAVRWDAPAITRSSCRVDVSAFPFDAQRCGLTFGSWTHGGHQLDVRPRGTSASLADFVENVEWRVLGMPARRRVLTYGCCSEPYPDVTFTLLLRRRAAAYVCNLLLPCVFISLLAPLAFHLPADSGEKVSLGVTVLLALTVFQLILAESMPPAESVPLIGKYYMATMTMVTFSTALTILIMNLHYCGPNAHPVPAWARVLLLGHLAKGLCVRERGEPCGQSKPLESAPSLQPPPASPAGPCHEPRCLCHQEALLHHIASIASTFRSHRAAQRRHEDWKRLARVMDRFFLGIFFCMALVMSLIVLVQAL

[8] = target: rα7 nAChR (Rattus norvegicus, UniProt Q05941)
rα7 nAChR, sequence (Q05941 23-502 limits assumed): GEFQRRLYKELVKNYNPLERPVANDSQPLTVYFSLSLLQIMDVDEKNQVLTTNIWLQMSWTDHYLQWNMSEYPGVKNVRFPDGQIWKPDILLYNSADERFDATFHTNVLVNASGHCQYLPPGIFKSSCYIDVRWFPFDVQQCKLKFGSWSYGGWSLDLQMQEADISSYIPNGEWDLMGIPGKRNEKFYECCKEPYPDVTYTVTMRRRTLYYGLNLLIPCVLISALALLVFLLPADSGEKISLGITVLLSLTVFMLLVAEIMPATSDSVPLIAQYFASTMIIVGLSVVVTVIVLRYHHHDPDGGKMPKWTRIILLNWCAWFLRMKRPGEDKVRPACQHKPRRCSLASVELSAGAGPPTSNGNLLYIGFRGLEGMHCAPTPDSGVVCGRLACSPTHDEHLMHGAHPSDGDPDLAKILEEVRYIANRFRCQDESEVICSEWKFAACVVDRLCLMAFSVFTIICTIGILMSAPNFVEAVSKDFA

[9] = target: rα4β4 nAChR (Rattus norvegicus, UniProt P09483+P12392)
[10] = target: rα4β2 nAChR (Rattus norvegicus, UniProt P09483+P12390)

rα6/α3β2β3 nAChR, sequence (P04757 whole entry, looked up): as the sequence (P04757 whole entry, looked up) above
rα6/α3β2β3 nAChR, sequence (P12390 whole entry, looked up): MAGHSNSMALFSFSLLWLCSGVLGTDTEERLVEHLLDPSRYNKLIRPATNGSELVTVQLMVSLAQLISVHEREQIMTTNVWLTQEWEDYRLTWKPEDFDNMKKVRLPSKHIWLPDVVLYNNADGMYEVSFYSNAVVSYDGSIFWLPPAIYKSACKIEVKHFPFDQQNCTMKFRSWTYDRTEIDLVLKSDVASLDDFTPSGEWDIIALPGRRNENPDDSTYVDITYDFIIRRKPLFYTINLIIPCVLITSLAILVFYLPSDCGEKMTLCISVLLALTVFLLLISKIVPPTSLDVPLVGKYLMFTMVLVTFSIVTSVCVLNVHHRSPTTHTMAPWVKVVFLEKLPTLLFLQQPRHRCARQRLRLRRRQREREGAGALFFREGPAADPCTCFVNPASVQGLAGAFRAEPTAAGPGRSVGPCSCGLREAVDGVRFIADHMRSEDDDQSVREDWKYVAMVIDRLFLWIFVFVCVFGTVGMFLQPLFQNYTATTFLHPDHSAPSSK
rα6/α3β2β3 nAChR, sequence (P12391 whole entry, looked up): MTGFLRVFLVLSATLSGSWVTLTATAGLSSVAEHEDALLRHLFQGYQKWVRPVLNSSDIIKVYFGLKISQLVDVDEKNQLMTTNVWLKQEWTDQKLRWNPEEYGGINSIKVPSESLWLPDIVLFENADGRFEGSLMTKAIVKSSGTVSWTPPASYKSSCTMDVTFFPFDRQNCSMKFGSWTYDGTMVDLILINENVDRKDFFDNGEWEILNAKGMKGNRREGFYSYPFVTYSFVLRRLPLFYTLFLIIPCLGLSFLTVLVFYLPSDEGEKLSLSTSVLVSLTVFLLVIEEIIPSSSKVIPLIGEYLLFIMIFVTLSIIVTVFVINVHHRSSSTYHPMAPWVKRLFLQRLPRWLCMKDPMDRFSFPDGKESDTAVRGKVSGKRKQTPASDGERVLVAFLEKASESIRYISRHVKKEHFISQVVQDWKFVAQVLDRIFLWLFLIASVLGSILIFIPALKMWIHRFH
rα6/α3β2β3 nAChR, sequence (P43143 whole entry, looked up): as the sequence (P43143 whole entry, looked up) above
rα3β2 nAChR, sequence (P04757 26-499 limits assumed): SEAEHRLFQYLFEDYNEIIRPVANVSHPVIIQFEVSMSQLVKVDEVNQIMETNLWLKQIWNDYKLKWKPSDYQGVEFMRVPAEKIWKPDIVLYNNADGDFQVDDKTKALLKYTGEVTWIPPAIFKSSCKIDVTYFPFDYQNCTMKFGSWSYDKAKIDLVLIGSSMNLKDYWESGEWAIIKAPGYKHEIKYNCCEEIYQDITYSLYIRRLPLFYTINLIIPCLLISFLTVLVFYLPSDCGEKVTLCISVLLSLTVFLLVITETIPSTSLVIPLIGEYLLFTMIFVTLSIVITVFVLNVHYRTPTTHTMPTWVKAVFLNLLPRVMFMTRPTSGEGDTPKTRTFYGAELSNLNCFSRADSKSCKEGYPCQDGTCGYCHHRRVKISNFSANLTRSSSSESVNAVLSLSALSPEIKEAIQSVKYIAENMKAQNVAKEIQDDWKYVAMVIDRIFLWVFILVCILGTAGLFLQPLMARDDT
rα3β2 nAChR, sequence (P12390 25-500 limits assumed): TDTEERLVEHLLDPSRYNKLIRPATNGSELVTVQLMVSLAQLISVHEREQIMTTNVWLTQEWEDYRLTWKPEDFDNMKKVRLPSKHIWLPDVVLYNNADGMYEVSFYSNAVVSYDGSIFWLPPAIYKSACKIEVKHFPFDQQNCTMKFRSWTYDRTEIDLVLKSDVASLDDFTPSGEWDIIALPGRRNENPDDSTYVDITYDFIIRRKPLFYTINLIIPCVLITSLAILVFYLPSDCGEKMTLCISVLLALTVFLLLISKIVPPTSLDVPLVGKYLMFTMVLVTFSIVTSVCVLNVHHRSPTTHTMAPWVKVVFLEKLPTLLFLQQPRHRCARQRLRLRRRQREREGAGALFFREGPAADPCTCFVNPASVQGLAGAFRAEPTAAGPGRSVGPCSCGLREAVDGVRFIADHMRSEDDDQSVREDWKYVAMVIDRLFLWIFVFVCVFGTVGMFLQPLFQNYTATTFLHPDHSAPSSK

## CC[C@H](C)[C@@H]1NC(=O)[C@H](CC(=O)O)NC(=O)[C@H](CCC(N)=O)NC(=O)[C@H](CC(N)=O)NC(=O)[C@H](CC(N)=O)NC(=O)CNC(=O)[C@H](C)NC(=O)[C@@H]2CSSC[C@H](NC(=O)CN)C(=O)N[C@@H](CSSC[C@@H](C(N)=O)NC1=O)C(=O)N[C@@H](CO)C(=O)N[C@@H](Cc1c[nH]cn1)C(=O)N1CCC[C@H]1C(=O)N[C@@H](C)C(=O)N2 [LvIF]
[1]
  IC50: > 10 µM
  inhibition at 1 μM: no inhibition
[2]
  IC50: 0.00898 µM
[2]; read-out: inhibition at 10 nM
  inhibition at 0.01 µM: ~57%
[2]; read-out: inhibition at 10 μM
  inhibition at 10 µM: 98.3 ± 0.6%
[3]
  IC50: 0.0144 µM
[3]; read-out: inhibition at 10 nM
  inhibition at 0.01 µM: ~39%
[3]; read-out: inhibition at 10 μM
  inhibition at 10 µM: 98.3 ± 0.3%
[4]
  IC50: > 10 µM
[4]; read-out: inhibition at 10 μM
  inhibition at 10 µM: 9.5 ± 2.4%
[5]
  IC50: > 10 µM
[5]; read-out: inhibition at 10 μM
  inhibition at 10 µM: 6.7 ± 4.5%
[6]
  IC50: > 10 µM
[6]; read-out: inhibition at 10 μM
  inhibition at 10 µM: 2.3 ± 3.3%
[7]
  IC50: > 10 µM
[7]; read-out: inhibition at 10 μM
  inhibition at 10 µM: 1.31 ± 5.2%
[8]
  IC50: > 10 µM
[8]; read-out: inhibition at 10 μM
  inhibition at 10 µM: 12.3 ± 4.2%
[9]
  IC50: > 10 µM
[9]; read-out: inhibition at 10 μM
  inhibition at 10 µM: 8.6 ± 4.2%
[10]
  IC50: > 10 µM
[10]; read-out: inhibition at 10 μM
  inhibition at 10 µM: 4.6 ± 2.5%
